In patent US10440947B2, “Aqueous solution for preserving an organ and uses during hypothermic ischemia” (UNIVERSITE CLAUDE BERNARD LYON I, priority 2013, dated 2019):

Legend:
[1] = test system: rat primary cardiomyocytes; test: MTT viability of rat primary cardiomyocytes after cold ischemia-reperfusion; type: cell-based
Experimental: (§1) MTT, or […] (Sigma), is a molecule that bonds to mitochondrial dehydrogenases (DH) in the presence of oxidized nicotimamide adenine dinucleotide and nicotimamide adenine dinucleotide phosphate (NAD+ and NADP+) coenzymes to form insoluble formazan crystals of violet color. The resulting violet color is evidence of mitochrondrial function and thus of cell viability. The crystals were dissolved in a permeabilization solution (dimethyl sulfoxide or DMSO, Sigma). This solubilization of formazan also gives rise to cell lysis. The plates were read by spectrophotometry (Multiskan Ex, Thermo, Electron Corporation®) at 550 nanometers (nm).
(§2) The purpose of this protocol was to determine the potentially protective effect of cyclosporin and/or taxol on cardiomyocytes placed in a cold ischemia situation at 4° C. for 24 hours (h), followed by reperfusion for 24 h, at the end of which the viability test (the MTT test) was performed. A “sham” group was not subjected to the ischemia—reperfusion sequence. At each of the doses tested, four different experiments were performed, and during each experiment, eight different cell wells were tested simultaneously.
(§3) Statistical analysis consisted in comparing means (Student's test between the group under study and the control group).

[2] = test system: isolated whole rat heart; test: Myocardial necrosis (size of infarctus, TTC dye) of isolated rat heart after cold ischemia-reperfusion; details: 1 μM in Celsior solution, 8 h cold ischemia at 4° C. then reperfusion
Experimental: The rats were anesthetized by intraperitoneal injection of sodium pentobarbital (50 milligrams per kilogram (mg/kg)). They were then placed in dorsal decubitus. After isolating the femoral vein, heparin was administered intravenously (200 IU/kg). An abdominal incision was made, followed by a thoracic incision. The sternum was pulled towards the rat's head, using a clamp, and the diaphragm was dissected. The heart isolated from its pericardium was excised and stopped in the hypothermic Celsior solution. […] The hearts were then placed at 4° C. in the same solution for 8 h (the cold ischemia stage), prior to reperfusion (the reanimation stage). After 8 h of cold ischemia, each heart was fastened by its aorta to a cannula for continuous retrograde perfusion using Krebs Henseleit (KH, having the following composition in mM: glucose 11.0; NaCl 118.5: KCl 4.75; MgSO4 1.19, KH2PO4 1.2; NaHCO3 24.0; CaCl2 1.4). A constant pressure of 100 centimeters (cm) of H2O (corresponding to 74 millimeters of mercury (mmHg)) was imposed. […] For each slice, the ratio AN/AR was expressed as a percentage, representing the size of the infarctus. The sum of the infarctuses in all of the sections belonging to the same left ventricle gave the quantity of necrosis for the heart in question. […] At the end of cold ischemia, the hearts were reperfused and the size of infarctus was analyzed histologically after using TTC dye.

[3] = test system: H9c2 cardiomyocytes; test: MTT viability of H9c2 cardiomyocytes after cold ischemia-reperfusion; type: cell-based, rat
Experimental: This was a conventional model for culturing rat cardiomyocytes. The H9c2 cardiac cells (ATTC®) came from rat heart ventricles transfected with a pSV3 plasmid containing the SV40 gene. The cells were cultivated in high glucose Dulbecco's modified Eagle's medium (DMEM) (PAA®), with an additional 10% of Mycoplex FBS (PAA®) and 1% penicillin-streptomycin. The medium was changed every two days and re-seeding was performed at 70%-80% confluence.
as §1, §2, §3
The viability of primary cardiomyocytes was evaluated after 24 h of cold ischemia and 24 h of reperfusion.
As before, the viability of H9c2 cardiomyocytes was evaluated after 24 h cold ischemia and 24 h reperfusion.

[4] = test system: isolated whole rat heart; test: Functional recovery (LVDevP×HR) of perfused isolated rat heart (Langendorff mode) after cold ischemia-reperfusion; details: 1 μM in Celsior solution; 8 h cold ischemia at 4° C. + 1 h reperfusion at 37° C.; p<0.01
Experimental: The rats were anesthetized by intraperitoneal injection of sodium pentobarbital (50 milligrams per kilogram (mg/kg)). They were then placed in dorsal decubitus. After isolating the femoral vein, heparin was administered intravenously (200 IU/kg). An abdominal incision was made, followed by a thoracic incision. The sternum was pulled towards the rat's head, using a clamp, and the diaphragm was dissected. The heart isolated from its pericardium was excised and stopped in the hypothermic Celsior solution. […] The hearts were then placed at 4° C. in the same solution for 8 h (the cold ischemia stage), prior to reperfusion (the reanimation stage).
After 8 h of cold ischemia, each heart was fastened by its aorta to a cannula for continuous retrograde perfusion using Krebs Henseleit (KH, having the following composition in mM: glucose 11.0; NaCl 118.5: KCl 4.75; MgSO4 1.19, KH2PO4 1.2; NaHCO3 24.0; CaCl2 1.4). A constant pressure of 100 centimeters (cm) of H2O (corresponding to 74 millimeters of mercury (mmHg)) was imposed. The KH solution was bubbled continuously with 95% O2+5% CO2, in order to maintain its pH at 7.4.
A latex balloon was installed in the left ventricle and connected to a pressure sensor previously calibrated by internal calibration (0 to 200 mmHg). At the beginning of reperfusion, the balloon was inflated in order to obtain a telediastolic pressure of about 5 mmHg. […]

[5] = 1 μM, 5 μM and 10 μM in MM, 24 h cold ischemia + 24 h reperfusion
[6] = tested 0.25-10 μM in St. Thomas basal solution, 24 h cold ischemia + 24 h reperfusion

## CC(=O)O[C@H]1C(=O)[C@@]2(C)[C@H]([C@H](OC(=O)c3ccccc3)[C@]3(O)C[C@H](OC(=O)[C@H](O)[C@@H](NC(=O)c4ccccc4)c4ccccc4)C(C)=C1C3(C)C)[C@]1(OC(C)=O)CO[C@@H]1C[C@@H]2O [taxol, paclitaxel]
[1]; [5]
  cardioprotective effect when added singly to LYPS, relative to "MM" reference group: adds nothing in terms of cardioprotective effect
[1]; agent at optimum concentration around 1 μM in St. Thomas basal solution, 24 h cold ischemia at 4° C. + 24 h reperfusion, p<0.01
  cardiomyocyte viability increased (MTT) relative to control group: about 25%
[1]; [6]
  optimum concentration for increasing cardiomyocyte viability: around 1 μM
[2]
  size of infarctus (AN/AR), % of the zone at risk: 8.7%
[3]; [5]
  cardioprotective effect when added singly to LYPS, relative to "MM" reference group: adds nothing in terms of cardioprotective effect
[3]; agent at optimum concentration around 1 μM in St. Thomas basal solution, 24 h cold ischemia at 4° C. + 24 h reperfusion, p<0.001
  cardiomyocyte viability increased (MTT) relative to control group: about 90%
[3]; [6]
  optimum concentration for increasing cardiomyocyte viability: around 1 μM
[4]
  improvement in LVDevP×HR compared with the control group: 25%
